Assay results: ChEMBL document CHEMBL4257490, “Development of a peptide-based bifunctional chelator conjugated to a cytotoxic drug for the treatment of melanotic melanoma” (Medchemcomm, 2018); call rule not given here
pIC50: −log10 of the molar value. Residues, ends and D or L forms follow the SMILES beside them. *: point of attachment. X1 = O=c1nc(N*)ccn1[C@@H]1O[C@H](CO)[C@@H](O)C1(F)F

What was measured:
[1] = Drug uptake in kidney of Balb/c mouse allografted with mouse B16F10 cells using 99mTc(CO)3-labeled compound at 4 to 8 MBq, iv measured at 4 hrs by scintigraphic imaging method; assay type: ADME, organism-based; details: in vivo
[2] = Drug uptake in mouse B16F10 cells using 99mTc(CO)3-labeled compound at 15 to 20 MBq/ml after 30 mins by gamma scintillation counting method; assay type: ADME, cell-based; details: b16-f10, 0.5 h
[3] = Drug uptake in liver of Balb/c mouse allografted with mouse B16F10 cells using 99mTc(CO)3-labeled compound at 4 to 8 MBq, iv measured at 4 hrs by scintigraphic imaging method; assay type: ADME, organism-based; details: in vivo
[4] = Drug uptake in muscle of Balb/c mouse allografted with mouse B16F10 cells using 99mTc(CO)3-labeled compound at 10 to 12 MBq/kg, iv measured at 2 hrs; assay type: ADME, organism-based, Muscle tissue; details: in vivo
[5] = Hemolytic activity in rat erythrocytes at 100 uM after 1 hr relative to control; assay type: ADME, cell-based, Erythrocyte; details: read-out: Activity
[6] = Ratio of drug level in tumor to muscle of Balb/c mouse allografted with mouse B16F10 cells using 99mTc(CO)3-labeled compound at 10 to 12 MBq/kg, iv measured at 2 hrs; assay type: ADME, organism-based, Tumor/tissue; details: in vivo
[7] = Drug uptake in spleen of Balb/c mouse allografted with mouse B16F10 cells using 99mTc(CO)3-labeled compound at 10 to 12 MBq/kg, iv measured at 4 hrs; assay type: ADME, organism-based; details: in vivo
[8] = Drug uptake in mouse B16F10 cells using 99mTc(CO)3-labeled compound at 15 to 20 MBq/ml after 240 mins by gamma scintillation counting method; assay type: ADME, cell-based; details: b16-f10, 4 h
[9] = Drug uptake in intestine of Balb/c mouse allografted with mouse B16F10 cells using 99mTc(CO)3-labeled compound at 10 to 12 MBq/kg, iv measured at 4 hrs; assay type: ADME, organism-based; details: in vivo
[10] = Stability in saline assessed as parent compond remaining using 99mTc(CO)3-labeled compound after 24 hrs by TLC method; assay type: physicochemical; details: read-out: Stability
[11] = Drug uptake in stomach of Balb/c mouse allografted with mouse B16F10 cells using 99mTc(CO)3-labeled compound at 10 to 12 MBq/kg, iv measured at 4 hrs; assay type: ADME, organism-based; details: in vivo
[12] = Drug uptake in tumor muscle of Balb/c mouse allografted with mouse B16F10 cells using 99mTc(CO)3-labeled compound at 10 to 12 MBq/kg, iv measured at 4 hrs; assay type: ADME, organism-based; details: in vivo
B16-F10 [13] = assay: Ratio of drug uptake in mouse B16F10 cells at 20 ug/ml after 4 hrs by flow cytometric method to drug uptake in mouse B16F10 cells at 20 ug/ml after 30 mins by flow cytometric method; assay type: ADME, cell-based
[14] = Drug uptake in stomach of Balb/c mouse allografted with mouse B16F10 cells using 99mTc(CO)3-labeled compound at 10 to 12 MBq/kg, iv measured at 2 hrs; assay type: ADME, organism-based; details: in vivo
[15] = Drug uptake in urinary bladder of Balb/c mouse allografted with mouse B16F10 cells using 99mTc(CO)3-labeled compound at 4 to 8 MBq, iv measured at 4 hrs by scintigraphic imaging method; assay type: ADME, organism-based; details: in vivo
[16] = Drug uptake in urine of Balb/c mouse allografted with mouse B16F10 cells using 99mTc(CO)3-labeled compound at 10 to 12 MBq/kg, iv measured at 4 hrs; assay type: ADME, organism-based; details: in vivo
[17] = Ratio of drug level in tumor to muscle of Balb/c mouse allografted with mouse B16F10 cells using 99mTc(CO)3-labeled compound at 10 to 12 MBq/kg, iv measured at 4 hrs; assay type: ADME, organism-based, Tumor/tissue; details: in vivo
[18] = Drug uptake in gastrointestinal tract of Balb/c mouse allografted with mouse B16F10 cells using 99mTc(CO)3-labeled compound at 4 to 8 MBq, iv measured at 4 hrs by scintigraphic imaging method; assay type: ADME, organism-based; details: in vivo
[19] = n-Octanol-phosphate buffer partition co-efficient, log P of 99mTc(CO)3-labeled compound at 2 to 3 KBq after 1 min by gamma scintillation counting method; assay type: physicochemical
[20] = Drug uptake in liver of Balb/c mouse allografted with mouse B16F10 cells using 99mTc(CO)3-labeled compound at 10 to 12 MBq/kg, iv measured at 2 hrs; assay type: ADME, organism-based; details: in vivo
[21] = Drug uptake in kidney of Balb/c mouse allografted with mouse B16F10 cells using 99mTc(CO)3-labeled compound at 10 to 12 MBq/kg, iv measured at 2 hrs; assay type: ADME, organism-based; details: in vivo
[22] = Drug uptake in urine of Balb/c mouse allografted with mouse B16F10 cells using 99mTc(CO)3-labeled compound at 10 to 12 MBq/kg, iv measured at 2 hrs; assay type: ADME, organism-based; details: in vivo
[23] = Drug uptake in heart of Balb/c mouse allografted with mouse B16F10 cells using 99mTc(CO)3-labeled compound at 10 to 12 MBq/kg, iv measured at 4 hrs; assay type: ADME, organism-based; details: in vivo
[24] = Drug uptake in blood of Balb/c mouse allografted with mouse B16F10 cells using 99mTc(CO)3-labeled compound at 10 to 12 MBq/kg, iv measured at 4 hrs; assay type: ADME, organism-based; details: in vivo
[25] = Drug uptake in kidney of Balb/c mouse allografted with mouse B16F10 cells using 99mTc(CO)3-labeled compound at 10 to 12 MBq/kg, iv measured at 4 hrs; assay type: ADME, organism-based; details: in vivo
[26] = Drug uptake in blood of Balb/c mouse allografted with mouse B16F10 cells using 99mTc(CO)3-labeled compound at 10 to 12 MBq/kg, iv measured at 2 hrs; assay type: ADME, organism-based; details: in vivo
[27] = Ratio of drug level in tumor to blood of Balb/c mouse allografted with mouse B16F10 cells using 99mTc(CO)3-labeled compound at 10 to 12 MBq/kg, iv measured at 2 hrs; assay type: ADME, organism-based, Tumor/tissue
[28] = Drug uptake in tumor of Balb/c mouse allografted with mouse B16F10 cells using 99mTc(CO)3-labeled compound at 4 to 8 MBq, iv measured at 4 hrs by scintigraphic imaging method; assay type: ADME, organism-based, Neoplasm; details: in vivo
[29] = Metabolic stability in rat serum assessed as parent compound remaining using 99mTc(CO)3-labeled compound after 24 hrs by TLC method; assay type: ADME, cell-free; details: read-out: Stability
[30] = Drug uptake in heart of Balb/c mouse allografted with mouse B16F10 cells using 99mTc(CO)3-labeled compound at 10 to 12 MBq/kg, iv measured at 2 hrs; assay type: ADME, organism-based; details: in vivo
[31] = Drug uptake in lung of Balb/c mouse allografted with mouse B16F10 cells using 99mTc(CO)3-labeled compound at 10 to 12 MBq/kg, iv measured at 4 hrs; assay type: ADME, organism-based; details: in vivo
[32] = Drug uptake in liver of Balb/c mouse allografted with mouse B16F10 cells using 99mTc(CO)3-labeled compound at 10 to 12 MBq/kg, iv measured at 4 hrs; assay type: ADME, organism-based; details: in vivo
B16-F10 [33] = assay: Cytotoxicity against mouse B16F10 cells assessed as decrease in cell viability after 72 hrs by MTT assay; assay type: functional, cell-based; details: B16-F10, 72 h
[34] = Hemolytic activity in rat erythrocytes up to 50 uM after 1 hr relative to control; assay type: ADME, cell-based, Erythrocyte; details: read-out: Activity
[35] = Drug uptake in mouse B16F10 cells using 99mTc(CO)3-labeled compound at 15 to 20 MBq/ml after 240 mins by gamma scintillation counting method relative to total added activity; assay type: ADME, cell-based; details: b16-f10, 4 h
[36] = Drug uptake in muscle of Balb/c mouse allografted with mouse B16F10 cells using 99mTc(CO)3-labeled compound at 10 to 12 MBq/kg, iv measured at 4 hrs; assay type: ADME, organism-based, Muscle tissue; details: in vivo
[37] = Ratio of drug level in tumor to blood of Balb/c mouse allografted with mouse B16F10 cells using 99mTc(CO)3-labeled compound at 10 to 12 MBq/kg, iv measured at 4 hrs; assay type: ADME, organism-based, Tumor/tissue
[38] = Drug uptake in intestine of Balb/c mouse allografted with mouse B16F10 cells using 99mTc(CO)3-labeled compound at 10 to 12 MBq/kg, iv measured at 2 hrs; assay type: ADME, organism-based; details: in vivo
[39] = Drug uptake in lung of Balb/c mouse allografted with mouse B16F10 cells using 99mTc(CO)3-labeled compound at 10 to 12 MBq/kg, iv measured at 2 hrs; assay type: ADME, organism-based; details: in vivo
[40] = Drug degradation in histidine solution using 99mTc(CO)3-labeled compound after 24 hrs by TLC method; assay type: physicochemical; details: read-out: Drug degradation
[41] = Drug uptake in spleen of Balb/c mouse allografted with mouse B16F10 cells using 99mTc(CO)3-labeled compound at 10 to 12 MBq/kg, iv measured at 2 hrs; assay type: ADME, organism-based; details: in vivo
[42] = Drug uptake in mouse B16F10 cells using 5,6-carboxyfluorescein-labeled compound at 20 ug/ml after 4 hrs by DAPI staining-based fluorescence microscopic method; assay type: ADME, cell-based; details: b16-f10, 4 h
[43] = Drug uptake in tumor muscle of Balb/c mouse allografted with mouse B16F10 cells using 99mTc(CO)3-labeled compound at 10 to 12 MBq/kg, iv measured at 2 hrs; assay type: ADME, organism-based; details: in vivo
[44] = Drug uptake in mouse B16F10 cells using 99mTc(CO)3-labeled compound at 15 to 20 MBq/ml after 30 mins by gamma scintillation counting method relative to total added activity; assay type: ADME, cell-based; details: b16-f10, 0.5 h

Compound: N=C(N)NCCC[C@H](NC(=O)[C@@H](N)Cc1cnc[nH]1)C(=O)NCC(=O)N[C@@H](CC(=O)Nc1ccn([C@@H]2O[C@H](CO)[C@@H](O)C2(F)F)c(=O)n1)C(N)=O (H-HRGD(X1)-NH2)
- Drug uptake [1]: Active
- Drug uptake [2]: 30.45%
- Drug uptake [3]: Active
- Drug uptake [4]: 0.17 % ID/g
- hemolysis at 1 h, 100 µM [5]: 7 to 9%
- Ratio [6]: 4.66
- Drug uptake [7]: 0.26 % ID/g
- Drug uptake [8]: 65%
- Drug uptake [9]: 9.06 % ID/g
- remaining at 24 h [10]: ≥ 92%
- Drug uptake [11]: 0.26 % ID/g
- Drug uptake [12]: 0.83 % ID/g
- Ratio (B16-F10 [13]): 1.8
- Drug uptake [14]: 0.36 % ID/g
- Drug uptake [15]: Active
- Drug uptake [16]: 56.11 %ID/ml
- Ratio [17]: 4.89
- Drug uptake [18]: Active
- logP at 1 min [19]: -1.77
- Drug uptake [20]: 16.89 % ID/g
- Drug uptake [21]: 4.44 % ID/g
- Drug uptake [22]: 53.11 %ID/ml
- Drug uptake [23]: 0.05 % ID/g
- Drug uptake [24]: 0.88 %ID/ml
- Drug uptake [25]: 3.24 % ID/g
- Drug uptake [26]: 1.13 %ID/ml
- Kp at 2 h [27]: 0.72
- Drug uptake [28]: Not Active
- remaining at 24 h [29]: ≥ 92%
- Drug uptake [30]: 0.07 % ID/g
- Drug uptake [31]: 0.2 % ID/g
- Drug uptake [32]: 14.39 % ID/g
- pIC50 (B16-F10 [33]): 6.68
- hemolysis at 1 h [34]: 5 to 6%
- Drug uptake [35]: 4.99%
- Drug uptake [36]: 0.17 % ID/g
- Kp at 4 h [37]: 0.94
- Drug uptake [38]: 7.9 % ID/g
- Drug uptake [39]: 0.32 % ID/g
- degraded at 24 h [40]: 5%
- Drug uptake [41]: 0.44 % ID/g
- Drug uptake [42]: Active
- Drug uptake [43]: 0.82 % ID/g
- Drug uptake [44]: 2.9%
